Tests used:
Canis familiaris [1] = assay: Collateral index in anesthetized dog at the dose of 0.01 mg/kg, i.v. after 60 minutes of administration; assay type: functional, Canis lupus familiaris; details: route intravenous
Canis familiaris [2] = assay: Maximum […] was measured in anesthetized dog as percent at the dose of 0.01 mg/kg, i.v.; assay type: functional, Canis lupus familiaris; details: route intravenous
Canis familiaris [3] = assay: Maximum collateral index in anesthetized dog at the dose of 0.01 mg/kg, i.v.; assay type: functional, Canis lupus familiaris; details: route intravenous
Canis familiaris [4] = species: Canis familiaris; assay: Ratio of the CIAUC value to that of nitroglycerin (NTG ratio); assay type: functional, Canis lupus familiaris
Canis familiaris [5] = assay: Collateral index in anesthetized dog at the dose of 0.03 mg/kg, i.v. after 60 minutes of administration; assay type: functional, Canis lupus familiaris; details: route intravenous
Canis familiaris [6] = assay: Maximum collateral index in anesthetized dog at the dose of 0.03 mg/kg, i.v.; assay type: functional, Canis lupus familiaris; details: route intravenous
Canis familiaris [7] = assay: Maximum […] was measured in anesthetized dog as percent at the dose of 0.03 mg/kg, i.v.; assay type: functional, Canis lupus familiaris; details: route intravenous
[8] = Nitroglycerin ratio to that was measured; assay type: functional

| Compound | Collateral index (Canis familiaris [1]) | Max hypotension (Canis familiaris [2]) | Max collateral index (Canis familiaris [3]) | NG ratio (Canis familiaris [4]) | Collateral index (Canis familiaris [5]) | Max collateral index (Canis familiaris [6]) | Max hypotension (Canis familiaris [7]) | NG ratio [8] |
| --- | --- | --- | --- | --- | --- | --- | --- | --- |
| CC(=O)N[C@@H](CSC(=O)c1cccnc1)C(=O)NCCO[N+](=O)[O-] | 9 | -24% | 20 | 1.1 | – | – | – | – |
| O=C1NC(C(=O)NCCO[N+](=O)[O-])C(c2cccs2)S1 (centres undefined) | 3 | 0% | 8 | 0.5 | – | – | – | – |
| C[C@H](CO[N+](=O)[O-])NC(=O)[C@H]1CSC(=O)N1 | – | – | – | 0.4 | 5 | 6 | -3% | – |
| O=C1NC(C(=O)NCCO[N+](=O)[O-])C(Cc2ccccc2)S1 (centres undefined) | 7 | -3% | 12 | 1 | – | – | – | – |
| O=C1N[C@@H](C(=O)NCCO[N+](=O)[O-])CS1 | – | – | – | 0.8 | 11 | 14 | -8% | – |
| O=C1N[C@H](C(=O)NCCCO[N+](=O)[O-])CS1 | – | – | – | 0.1 | 6 | 4 | 0% | – |
| C[C@@H]1SC(=O)N[C@@H]1C(=O)NCCO[N+](=O)[O-] | 4 | -2% | 9 | 0.5 | – | – | – | – |
| CC(C)C(=O)N[C@@H](CSC(=O)C(C)C)C(=O)NCCO[N+](=O)[O-] | 9 | -14% | 25 | 1.5 | – | – | – | – |
| CCOC(=O)SC[C@H](NC(C)=O)C(=O)NCCO[N+](=O)[O-] | 16 | -18% | 39 | 2.4 | – | – | – | – |
| CC(=O)N[C@@H](CSC(=O)OC(C)(C)C)C(=O)NCCO[N+](=O)[O-] | 11 | -8% | 21 | 0.8 | – | – | – | – |
| CC(=O)N[C@@H](CSC(=O)C(C)(C)C)C(=O)NCCO[N+](=O)[O-] | 8 | -23% | 45 | 2.5 | – | – | – | – |
| CC1(C)SC(=O)N[C@@H]1C(=O)NCCO[N+](=O)[O-] | – | – | – | 0.6 | 8 | 9 | -2% | – |
| O=C1NC(C(=O)NCCO[N+](=O)[O-])C(c2cccc3ccccc23)S1 (centres undefined) | 9 | -2% | 9 | – | – | – | – | 0.5 |
| C[C@H](CO[N+](=O)[O-])NC(=O)[C@@H]1CSC(=O)N1 | – | – | – | 0.9 | 12 | 12 | -4% | – |
| CC(=O)N[C@@H](CSC(=O)c1ccccc1)C(=O)NCCO[N+](=O)[O-] | 5 | -28% | 49 | 2.1 | – | – | – | – |
| O=C1NC(C(=O)NCCO[N+](=O)[O-])C(c2ccco2)S1 (centres undefined) | – | – | – | 0.4 | 3 | 6 | -3% | – |

| Compound | Collateral index (Canis familiaris [1]) | Max hypotension (Canis familiaris [2]) | Max collateral index (Canis familiaris [3]) | NG ratio (Canis familiaris [4]) | Collateral index (Canis familiaris [5]) | Max collateral index (Canis familiaris [6]) | Max hypotension (Canis familiaris [7]) | NG ratio [8] |
| --- | --- | --- | --- | --- | --- | --- | --- | --- |
| O=C1N[C@H](C(=O)NCCCCO[N+](=O)[O-])CS1 | 0 | 0% | 2 | 0 | – | – | – | – |
| CC(=O)N[C@@H](CSC(C)=O)C(=O)NCCO[N+](=O)[O-] | 6 | -44% | 52 | 2 | – | – | – | – |
| O=C(N[C@@H](CS)C(=O)NCCO[N+](=O)[O-])c1cccnc1 | 0 | -3% | 2 | 0 | – | – | – | – |
| C[C@@H](CO[N+](=O)[O-])NC(=O)[C@@H]1CSC(=O)N1 | – | – | – | 1.1 | 15 | 16 | -5% | – |
| O=[N+]([O-])OCC(CO[N+](=O)[O-])O[N+](=O)[O-] [NITROGLYCERIN] | – | – | – | 1 | 4 | 33 | -55% | – |
| O=C1NC(C(=O)NCCO[N+](=O)[O-])C(c2cccnc2)S1 (centres undefined) | 0 | -4% | 2 | – | – | – | – | 0.1 |
| CC(CNC(=O)[C@@H]1CSC(=O)N1)O[N+](=O)[O-] (some centres undefined) | 0 | 0% | 0 | 0 | – | – | – | – |
| O=C1NC(C(=O)NCCO[N+](=O)[O-])C(c2ccccc2)S1 (centres undefined) | – | – | – | 1 | 9 | 18 | -6% | – |
| CC(=O)N[C@@H](CSC(=O)OCC(C)C)C(=O)NCCO[N+](=O)[O-] | 6 | -12% | 25 | 1.3 | – | – | – | – |
| C[C@@H](CO[N+](=O)[O-])NC(=O)[C@H]1CSC(=O)N1 | – | – | – | 0.3 | 3 | 5 | -1% | – |
| CCCC[C@@H](CO[N+](=O)[O-])NC(=O)[C@@H]1CSC(=O)N1 | – | – | – | 1.6 | 17 | 21 | -4% | – |
| CCC[C@@H](CO[N+](=O)[O-])NC(=O)[C@@H]1CSC(=O)N1 | – | – | – | 1.3 | 17 | 18 | -7% | – |
| CC(=O)N[C@@H](CS)C(=O)NCCO[N+](=O)[O-] | 9 | -52% | 39 | 1.9 | – | – | – | – |
| CC[C@@H](CO[N+](=O)[O-])NC(=O)[C@@H]1CSC(=O)N1 | – | – | – | 0.5 | 7 | 7 | -1% | – |
| O=C1N[C@H](C(=O)NCCO[N+](=O)[O-])CS1 | 16 | -8% | 23 | 1.9 | – | – | – | – |
